The numbers were not newly measured in US9139604B2, “Antiviral phosphonate analogs” (Gilead Sciences, Inc., priority 2003, dated 2015), which cites them from elsewhere.

SMILES strings stand for the structures.

This series deals with HIV. To be noted: described in the literature; kind of value (EC50/IC50) not stated.

Consider `Nc1nc(=O)c2ncn([C@@H]3C[C@H](CO)[C@H]3CO)c2[nH]1` [lubocavir], for which the anti-HIV activity is 30 µM.
